How the values were obtained:
[1] = system: mice; test: In vivo colonic transit (glass ball excretion time) after IM, mouse
Procedure: Colonic transit measurement was performed 24 h hours after operation by inserting a 2 mm glass ball with a metal rod 3 cm into the colon. Before insertion colonic patency was ensured by exclusively inserting the rod 3 cm into the colon. Mice were weakly anesthetized with isofluran for the whole procedure and wake up within 40 seconds after glass ball insertion. Colonic transit time was calculated as the period between insertion and excretion of the ball.

[2] = system: neutrophils in ME; test: Neutrophil infiltration into mouse ME (myeloperoxidase staining of whole mounts) after IM; format: in vivo, mice; conditions: for number of neutrophils in ME: 24 hours after IM
Description: The small bowel of the animals was subjected to a standardized, surgical manipulation (IM) as described previously (Kalff J C, Schraut W H, Simmons R L et al. Surgical manipulation of the gut elicits an intestinal muscularis inflammatory response resulting in postsurgical ileus. Ann Surg 1998; 228:652-663; Wehner S, Schwarz N T, Hundsdoerfer R et al. Induction of IL-6 within the rodent intestinal muscularis after intestinal surgical stress. Surgery 2005; 137:436-446). In brief, after anesthesia a midline abdominal incision was made into the peritoneal cavity. The entire small bowel was eventuated and manipulated with standardized moderate intensity using two moist cotton applicators as described previously. After IM, the laparotomy was closed by one layer of continuous suture, except when probe sampling was conducted within 20 minutes after surgery. These animals were held in anesthesia and the abdomen was closed by a clamp and protected with sterile gauze. All other animals recovered rapidly from the bowel manipulation procedure. Control animals exclusively underwent laparotomy without eventration and IM (sham operation).
Animals within examples referring to FIGS. 2-9 were treated 90 minutes before operation with 0 mg/kg (placebo group), or 5 mg/kg bodyweight CNI-1493. In further experiments in rats or mice 0.1, 1.0 or 10 mg/kg CPSI-2364 were administered 90 minutes before surgical procedure via oral route. Oral (p.o.) administration was performed via a gastric tube. CNI-1493 and CPSI-2364 were dissolved in 2.5% mannitol. Placebo and CNI-1493 or CPSI-2364 groups were subdivided in two further groups. One was sham operated (laparotomy without IM) while the other underwent laparotomy followed by IM.
Specimens for histochemical analysis were prepared 24 h after operation and performed on whole mounts of the distal jejunum, as described before in detail (n=5-7 each group) 9. In brief, jejunal segments were opened, immersed in chilled Krebs-Ringer buffer (KRB) and fixed in 100% ethanol for 10 minutes. After washing with KRB, mucosa and submucosa were stripped off and ME whole mounts were used for detection of myeloperoxidase (MPO) positive cells (neutrophils). Thereto, freshly prepared whole mounts were stained with Hanker-Yates reagent as described previously (Wehner S, Schwarz N T, Hundsdoerfer R et al. Induction of IL-6 within the rodent intestinal muscularis after intestinal surgical stress. Surgery 2005; 137:436-446). MPO+-cells were counted under a microscope (TE-2000, Nikon, Duesseldorf, Germany) in 5 randomly chosen areas in each specimen.

[3] = system: nitric oxide (NO) production in ME; test: Nitric oxide release from cultured mouse ME (Griess reaction) after IM; format: in vivo, mice
Procedure: […] Control animals received CNI-1493 (5 mg/kg) intravenously or CPSI-2364 orally (1 mg/kg or 0.1 mg/kg), but were not operated.
After preoperative i.v. or oral drug or placebo administration animals underwent IM. Control animals received CNI-1493 or placebo i.v. or orally but were not operated.
Total ME from small intestine was isolated 24 h after operation as described above and then cut into small pieces and washed for 30 minutes in PBS containing a penicillin/streptomycin (200U/200 μg) mixture. Aliquots of ˜50 mg were incubated in 1 mL of DMEM at 37° C. and 5% CO2 for further 24 hours and tissue culture supernatants were frozen in liquid nitrogen. The muscle tissue was blotted dry, and the exact weight was measured. To quantify the generation of NO from intestinal smooth muscle preparations, nitrite production was measured by the Griess reaction as described previously (Kalff J C, Schraut W H, Billiar T R et al. Role of inducible nitric oxide synthase in postoperative intestinal smooth muscle dysfunction in rodents. Gastroenterology 2000; 118:316-327). In brief, supernatant from the tissue culture was mixed with an equal volume of Griess reagent (0.1% N-(1-napthyl)ethyl-enediamine dihydrochloride and 1% sulfanilamide in 6% phosphoric acid; 1:1) and incubated for 10 minutes. The absorbance at 550 nm was measured with a microplate reader and compared with standard dilutions of sodium nitrite. Total nitrite produced was normalized to 1 g of muscle tissue.

[4] = system: jejunal circular smooth muscle; test: In vitro jejunal circular smooth muscle contractility (bethanechol) after IM, mouse; format: in vivo, mice
Procedure: Jejunal smooth muscle activity was measured as previously described (Kalff J C, Schraut W H, Simmons R L et al. Surgical manipulation of the gut elicits an intestinal muscularis inflammatory response resulting in postsurgical ileus. Ann Surg 1998; 228:652-663). Briefly, after preparation, mucosa-free circular ME strips were equilibrated in KRB perfused organ chambers at 37° C. for 1 hour. One end of each strip was tied to a fixed post and the other attached to an isometric force transducer (ADI, Heidelberg, Germany) connected to the bridge amplifier and powerlab system (ADI). Dose-response curves of muscle contraction were generated by exposing the muscle strips to increasing concentrations of the muscarinic agonist bethanechol (0.1-300 μmol/L) for 10 minutes, followed by a wash-period (KRB) of 10 minutes. The contractile response was analyzed with the ADI Chart© software and the contractions were calculated as grams per square millimeter per second by conversion of the weight and length of the strip to square millimeters of tissue.

[5] = system: mice; test: In vivo gastrointestinal transit (FITC-dextran geometric center) after IM, mouse
Procedure: Gastrointestinal transit was measured 23.5 hours postoperatively by evaluating the intestinal location of a fluorochrome labeled dextran (FITC—dextran, 70.000 MW, Molecular Probes, Netherlands) (n=10 each). Thereto, 22 hours after the bowel manipulation, animals were lightly anesthetized and given FITC-dextran (200 μl of 6.25 mg/ml stock solution) via a gastric tube into the stomach. Mice were killed 90 minutes after administration, the entire gastrointestinal tract was divided into 15 segments, opened and FITC-dextran was washed out by PBS. Fluorescence of segment washes was read at 494 nm/521 nm wavelength in fluorescence reader (Tecan, Crailsheim, Germany). The data were expressed as the percentage of activity per segment. Gastrointestinal transit was calculated as the geometric center (GC) of distribution of fluorescence marker using this formula:
GC=Σ(% of total fluorescent signal per segment*segment number)/100.

Compound | colonic transit time ([1]; 5 mg/kg intravenously preoperative, 24 hours after IM) | colonic transit time ([1]; unoperated controls of the CNI-1493 group (S-CTL, FIG. 8E)) | number of neutrophils in ME ([2]; 5 mg/kg i.p. preoperative) | number of neutrophils in ME ([2]; 5 mg/kg i.v. preoperative) | neutrophil infiltration, reduction ([2]; intravenous treatment, after IM) | NO production (nitrite release) from ME ([3]; 5 mg/kg i.v. preoperative, ME taken 24 h after IM, cultured 24 h) | NO production (nitrite release) from ME ([3]; 5 mg/kg i.v., non-operated animals (basal)) | suppression of bethanechol stimulated muscle contractility after IM ([4]; 5 mg/kg i.v. preoperative, 24 h after IM) | gastrointestinal transit, geometric center (GC) ([5]; 5 mg/kg i.p. preoperative, IM) | gastrointestinal transit, geometric center (GC) ([5]; 5 mg/kg i.p., sham operated) | gastrointestinal transit, geometric center (GC) ([5]; 5 mg/kg i.v. 90 minutes before operation, IM) | gastrointestinal transit, geometric center (GC) ([5]; 5 mg/kg i.v., sham operated) | gastrointestinal transit, geometric center (GC) ([5]; given immediately before laparotomy and IM (results not shown)) | colonic transit, excretion time of the ball vs Sham+Placebo ([1]; mice, 0.1, 1 or 10 mg/kg orally 90 minutes, 6 hours or 16 h before operation, IM (FIG. 26)) | neutrophils in ME compared to the placebo IM group ([2]; mice, p.o. preoperative, 24 hours after IM (FIG. 11)) | nitric oxide and its metabolites in muscularis culture supernatant vs Sham+Placebo ([3]; mice, 10 mg/kg orally 90 minutes or intravenously 60 minutes before operation, IM (FIG. 27)) | suppression of bethanechol stimulated muscle contractility after IM ([4]; mice, p.o. preoperative (FIG. 13)) | geometric centers of FITC dextran distribution vs Sham+Placebo ([5]; mice, 0.1, 1 or 10 mg/kg orally 90 minutes, 6 hours or 16 h before operation, IM (FIG. 25)) | gastrointestinal transit (GIT) ([5]; mice, p.o. preoperative, IM (FIG. 14))
C/C(=N\N=C(N)N)c1cc(NC(=O)CCCCCCCCC(=O)Nc2cc(/C(C)=N/N=C(N)N)cc(/C(C)=N/N=C(N)N)c2)cc(/C(C)=N/N=C(N)N)c1.Cl.Cl.Cl.Cl [CNI-1493] | 166 ± 87 s | 118 ± 68 s | 36.1±10.7 | 52.1±15.5 | reduced by only one third | 333 ± 198 µM | 45.5 ± 52.2 µM | completely abrogated | 10.96±1.71 | 9.81±0.92 | 8.97±0.60 | 11.98±0.73 | 5.48±2.01 | – | – | – | – | – | –
C/C(=N\N=C(N)N)c1cc(NC(=O)CCCCCCCCC(=O)Nc2cc(/C(C)=N/N=C(N)N)cc(/C(C)=N/N=C(N)N)c2)cc(/C(C)=N/N=C(N)N)c1.CS(=O)(=O)O.CS(=O)(=O)O.CS(=O)(=O)O.CS(=O)(=O)O [CPSI-2364] | – | – | – | – | – | – | – | – | – | – | – | – | – | None of the CPSI-2364 treated group differed significantly from Sham+Placebo group | significant reduction of neutrophils | None of the CPSI-2364 treated group differed significantly different from Sham+Placebo group | strongly abrogated | None of the CPSI-2364 treated groups differed significantly from the Sham+Placebo group | normalized GIT

— patent US20100179225A1, “POI Prevention” (CYTOKINE PHARMASCIENCES, INC., priority 2008, published 2010)
